Assay results as given in patent US5073571A, “Method of inhibiting virus” (priority 1989, dated 1991).

System: MoMLV
Test: MoMLV replication: LZ1 virus titer by histochemical staining of NIH 3T3 cells for β-galactosidase
Format: cell-based, Maloney murine leukemia virus
Settings: up to 100 μM, 2 day treatment of LZ1 cells
Source text: Panel A -Schematic representation of the MoMLV assay system. […] This cell produces infectious, replication defective virus (designated (LZ1) which carries the LacZ gene. When NIH3T3 cells are exposed to supernatant taken from the LZ1 virus producing cells, they are initially infected and their progeny are detectable by histochemical staining for β-galactosidase. Thus, the titer of the virus produced by the LZ1 cells after treatment with the various agents, can be readily determined by counting the number of blue NIH3T3 cells. Replication competent MoMLV is not detected using this assay system since the lacZ gene product is not present. Panel B - The effect of 6-oxamyristic acid and 13-oxamyristic acid on LZ1 virus production. The results represent the mean (+1 standard deviation) of three independent tests each done in duplicate. Panel C - Number of viable LZ1 producing cells at the end of a 2 day treatment with analog as measured by trypan blue exclusion. The results of duplicate assays were averaged. Panel D - The effects of analog treatment on incorporation of [^3 H]leucine. Cells in duplicate wells were pulse labeled for 4 h following three days of incubation with analog or ethanol (0.1%). Duplicate assays were performed. The results were averaged and expressed as a percentage of the results obtained from untreated cells.
Assay of the Effects of Analogs on the Replication of Maloney Murine Leukemia Virus. The LZ1 titer assay was developed for rapid histochemical quantitation of infectious virus production. In brief, the LZ1 virus-producing cell line was derived by Sanes et al., EMBO J. 5, 3133-3142 (1986), from the .PSI.-2 cell line. .PSI.-2-cells are NIH 3T3 cells that contain a stably integrated packaging mutant (pMOV-.PSI.-) of MoMLV. This mutant has a deletion of 350 nucleotides between the 5' donor splice site for env and the initiator methionine codon for Pr65^gag [Mann et al., Cell 33, 153-159 (1983)]. The LZ1 cell line is a subclone of .PSI.-2 cells that were co-transfectd with pM-MuLV-SV-LacZ [Sanes et al., supra.]and pSVTK neoB and then selected for G418 (Geneticin®) antibiotic resistance and production of defective MoMLV containing the E. coli β-galactosidase gene [Sanes et al., supra.]. The recombinant virus produced by LZ1 cells is capable of primary infection of NIH 3T3 cells but is replication defective [Sanes et al., surpa.]. Infected NIH 3T3 containing the lac-Z gene can be identified by histochemical staining for β-galactosidase activity.
To assess the effects of analog treatment on MoMLV replication, 1 × 10^5 LZ1 producing cells were added to each well of a 24-well tissue culture plate in 1 mL of Dulbecco's Modified Eagle's medium (DME) containing calf serum (final concentration =10%), penicillin (100 IU/mL), streptomycin (100 μg/mL) with or without analog (10-100 μM). After 24 h, the media was removed and fresh serum-containing media ±analog was added. The next day (48 hours after plating), the virus containing supernatant was removed and passed through a 0.2 μm filter. Various size aliquots (25-100 μL of the 1 mL filtrate) were added to 1 × 10^4 NIH 3T3 cells contained in 1 mL of DME/10% calf serum/penicillin/streptomycin. These indicator cells had been plated 24 h earlier in 24 well tissue culture plates. Polybrene (Sigma) was added at the same time as the filtrate so that its final concentration was 10 μg/mL. […]

## COCCCCCCCCCCCC(=O)O [13-oxamyristate, 12-(Methoxy)dodecanoic acid]
  effect on MoMLV replication: no effect on virus replication
